Measured values reported in patent US20110245159A1, “Salts, Solvates and Pharmaceutical Compositions of Macrocyclic Ghrelin Receptor Agonists and Methods of Using the Same” (priority 2009, published 2011).

Tests used:
[1] = Solubility of compound 298 salts, HPLC-CLND; conditions: 20 mg compound 298 + 0.5 mL aqueous acid (1.1 eq), agitated 72 h
Description: The pH of the solution was then measured and the amount of dissolved salt determined by HPLC-CLND analysis.

[2] = Static hygroscopicity study; assay type: physicochemical; conditions: 3 months, 80% RH, 25° C.
Description: The static hygroscopicity study was performed by exposing compound 298.HCl.H2O for a period of 3 months to 80% RH humidity at 25° C. […] The sample was analyzed at 1-week, 1-month, 2-month and 3-month time points by the following methods: DSC, thermogravimetric analysis and Karl-Fischer titrimetry.

[3] = Stability testing of compound 298.HCl.H2O at storage conditions; assay type: physicochemical
Description: For determining the stability of an active pharmaceutical ingredient (API) or a pharmaceutical composition, the approach as outlined for regulatory purposes in International Conference on Harmonisation of Technical Requirements for Registration of Pharmaceuticals for Human Use (ICH) Q1A Guideline: Stability Testing of New Drug Substances and Products, February 2003, can be followed. In summary, this entails repetition of certain analytical tests on samples stored at three representative controlled conditions to ascertain whether or not any degradation or loss of potency has occurred. The typical conditions employed are: (1) 25° C.±2° C., 60%±5% relative humidity (RH); (2) 30° C.±2° C., 65%±5% RH; (3) 40° C.±2° C., 75%±5% RH (often termed accelerated stability). The photostability as outlined in International Conference on Harmonisation of Technical Requirements for Registration of Pharmaceuticals for Human Use (ICH) Q1B Guideline: Stability Testing: Photostability Testing of New Drug Substances and Products, November 1996, is typically also investigated.
The purpose of this procedure is to determine the purity of representative salts, solvates and polymorphs of the invention by reverse phase HPLC. Any appropriate detection method compatible with HPLC can be utilized, such as single or dual wavelength ultraviolet (UV) detection, evaporative light scattering detection (ELSD) or chemiluminescent nitrogen detection (CLND). For most cases, UV detection would be preferred. Purity can be determined by peak area %. The same assay conditions are used to determine the level of impurities and the potency. The parameters for this HPLC assay are delineated below.
Moisture level is determined by Karl Fischer titrimetry using the direct titration method, in accordance with USP <921 1a>.

[4] = rat, in vivo, sc
Description: Formulations A, B-1, B-2 and B-3 were administered to male Sprague-Dawley rats subcutaneously (sc) at a dosing volume of 5 mL/kg.
Blood was collected via the JVC into tubes containing sodium EDTA (NaEDTA) and placed on ice until centrifugation. Samples were centrifuged at 13,000 rpm for 5 min with the temperature maintained at 4° C. Plasma was separated and stored frozen on dry ice prior to analysis.
The pharmacokinetic (PK) parameters for each animal were calculated using non-compartmental modeling (extravascular input model) and WinNonlin software (version 5.2, Pharsight). The half-life (t1/2), Area Under the Concentration Versus Time Curve from time 0 to the last quantifiable point (AUC0-t) and to infinity (AUC0-∞) were calculated and the observed Cmax and Tmax tabulated for each animal and dose group. […] The terminal elimination rate constant was calculated for the purpose of obtaining the extrapolated AUC0-∞ values.

[5] = Dynamic vapor sorption/desorption (DVS) hygroscopicity; assay type: physicochemical
Description: The hygroscopicity of salts, solvates and polymorphs of the invention can be assessed by both static and dynamic hygroscopicity studies. For the latter, dynamic vapor sorption/desorption (DVS) experiments can be performed on an SGA-100 gravimetric sorption analyzer (or similar). The experimental protocol typically included full weight equilibrium at 0% RH.
The hygroscopicity of compound 298.HCl.H2O was assessed by both static and dynamic vapor sorption/desorption (DVS) experiments were performed at 25° C. according to Method 4M.

[6] = humans, unspecified formulation; cited from earlier work
POI = conditions: unspecified formulation; cited from earlier work
GH secretion = conditions: animal models; cited from earlier work
diabetic gastroparesis = conditions: unspecified formulation; cited from earlier work
[7] = Batch 1, 25° C., 60% RH, 12 mos
[8] = Batch 1, 25° C., 60% RH, 18 mos
[9] = Batch 1, 25° C., 60% RH, 24 mos
[10] = Example 3, 25° C., 60% RH, 0 mos
[11] = Example 3, 25° C., 60% RH, 3 mos
[12] = Example 3, 25° C., 60% RH, 6 mos
[13] = Example 3, 25° C., 60% RH, 9 mos
[14] = Example 3, 25° C., 60% RH, 12 mos
[15] = Example 3, 25° C., 60% RH, 18 mos
[16] = Example 3, 40° C., 75% RH, 0 mos
[17] = Example 3, 40° C., 75% RH, 1 mos
[18] = Example 3, 40° C., 75% RH, 3 mos
[19] = Example 3, 40° C., 75% RH, 6 mos

Fumarate
pH at 72 hr [1]: 3.6

CC1CNC(C2CC2)C(=O)N(C)C(C)C(=O)NC(Cc2ccc(F)cc2)C(=O)NCCCc2ccccc2O1.Cl.O (stereo not drawn) [Compound 298•HCl•H2O]
Deliquescence [2]: No deliquescence was detected | Hygroscopicity ([2]; static study): essentially non-hygroscopic | HPLC Assay (% Purity) ([3]; Batch 1, 5° C., 0 mos): 100.48% | Total Impurities (%) ([3]; Batch 1, 5° C., 0 mos): 0.41% | HPLC Assay (% Purity) ([3]; Batch 1, 5° C., 3 mos): 98.72% | Total Impurities (%) ([3]; Batch 1, 5° C., 3 mos): 0.39% | HPLC Assay (% Purity) ([3]; Batch 1, 5° C., 6 mos): 98.48% | Total Impurities (%) ([3]; Batch 1, 5° C., 6 mos): 0.42% | HPLC Assay (% Purity) ([3]; Batch 1, 5° C., 9 mos): 100.78% | Total Impurities (%) ([3]; Batch 1, 5° C., 9 mos): 0.47% | HPLC Assay (% Purity) ([3]; Batch 1, 5° C., 12 mos): 98.19% | Total Impurities (%) ([3]; Batch 1, 5° C., 12 mos): 0.42% | HPLC Assay (% Purity) ([3]; Batch 1, 5° C., 18 mos): 98.68% | Total Impurities (%) ([3]; Batch 1, 5° C., 18 mos): 0.43% | HPLC Assay (% Purity) ([3]; Batch 1, 5° C., 24 mos): 100.15% | Total Impurities (%) ([3]; Batch 1, 5° C., 24 mos): 0.43% | HPLC Assay (% Purity) ([3]; Batch 1, 25° C., 60% RH, 0 mos): 100.48% | Total Impurities (%) ([3]; Batch 1, 25° C., 60% RH, 0 mos): 0.41% | HPLC Assay (% Purity) ([3]; Batch 1, 25° C., 60% RH, 1 mos): 98.99% | Total Impurities (%) ([3]; Batch 1, 25° C., 60% RH, 1 mos): 0.40% | HPLC Assay (% Purity) ([3]; Batch 1, 25° C., 60% RH, 3 mos): 98.39% | Total Impurities (%) ([3]; Batch 1, 25° C., 60% RH, 3 mos): 0.40% | HPLC Assay (% Purity) ([3]; Batch 1, 25° C., 60% RH, 6 mos): 98.81% | Total Impurities (%) ([3]; Batch 1, 25° C., 60% RH, 6 mos): 0.42% | HPLC Assay (% Purity) ([3]; Batch 1, 25° C., 60% RH, 9 mos): 100.65% | Total Impurities (%) ([3]; Batch 1, 25° C., 60% RH, 9 mos): 0.46% | HPLC Assay (% Purity) [3, 7]: 97.59% | Total Impurities (%) [3, 7]: 0.49% | HPLC Assay (% Purity) [3, 8]: 99.81% | Total Impurities (%) [3, 8]: 0.21% | HPLC Assay (% Purity) [3, 9]: 100.24% | Total Impurities (%) [3, 9]: 0.48% | HPLC Assay (% Purity) ([3]; Batch 1, 40° C., 75% RH, 0 mos): 100.48% | Total Impurities (%) ([3]; Batch 1, 40° C., 75% RH, 0 mos): 0.41% | HPLC Assay (% Purity) ([3]; Batch 1, 40° C., 75% RH, 1 mos): 98.49% | Total Impurities (%) ([3]; Batch 1, 40° C., 75% RH, 1 mos): 0.39% | HPLC Assay (% Purity) ([3]; Batch 1, 40° C., 75% RH, 3 mos): 98.22% | Total Impurities (%) ([3]; Batch 1, 40° C., 75% RH, 3 mos): 0.40% | HPLC Assay (% Purity) ([3]; Batch 1, 40° C., 75% RH, 6 mos): 98.41% | Total Impurities (%) ([3]; Batch 1, 40° C., 75% RH, 6 mos): 0.44% | HPLC Assay (% Purity) [3, 10]: 99.9% | Potency Assay (HPLC wt %) [3, 10]: 89.1 wt % | Total Impurities (%) [3, 10]: 0.06% | Water Content (%) [3, 10]: 3.9% | HPLC Assay (% Purity) [3, 11]: 99.9% | Potency Assay (HPLC wt %) [3, 11]: 90.2 wt % | Total Impurities (%) [3, 11]: 0.12% | Water Content (%) [3, 11]: 4.2% | HPLC Assay (% Purity) [3, 12]: 99.9% | Potency Assay (HPLC wt %) [3, 12]: 90.1 wt % | Total Impurities (%) [3, 12]: 0.07% | Water Content (%) [3, 12]: 4.1% | HPLC Assay (% Purity) [3, 13]: 99.9% | Potency Assay (HPLC wt %) [3, 13]: 90.5 wt % | Total Impurities (%) [3, 13]: 0.06% | Water Content (%) [3, 13]: 4.3% | HPLC Assay (% Purity) [3, 14]: 99.9% | Potency Assay (HPLC wt %) [3, 14]: 89.9 wt % | Total Impurities (%) [3, 14]: 0.06% | Water Content (%) [3, 14]: 3.1% | HPLC Assay (% Purity) [3, 15]: 99.8% | Potency Assay (HPLC wt %) [3, 15]: 89.8 wt % | Total Impurities (%) [3, 15]: 0.07% | Water Content (%) [3, 15]: 4.0% | HPLC Assay (% Purity) [3, 16]: 99.9% | Potency Assay (HPLC wt %) [3, 16]: 89.1 wt % | Total Impurities (%) [3, 16]: 0.06% | Water Content (%) [3, 16]: 3.9% | HPLC Assay (% Purity) [3, 17]: 99.8% | Potency Assay (HPLC wt %) [3, 17]: 88.4 wt % | Total Impurities (%) [3, 17]: 0.18% | Water Content (%) [3, 17]: 3.5% | HPLC Assay (% Purity) [3, 18]: 99.9% | Potency Assay (HPLC wt %) [3, 18]: 92.1 wt % | Total Impurities (%) [3, 18]: 0.12% | Water Content (%) [3, 18]: 3.7% | HPLC Assay (% Purity) [3, 19]: 99.9% | Potency Assay (HPLC wt %) [3, 19]: 89.6 wt % | Total Impurities (%) [3, 19]: 0.07% | Water Content (%) [3, 19]: 4.2% | XRPD analysis ([3]; Example 3, both storage conditions after 6 months): still consistent with the standard pattern | Appearance as a white powder ([3]; Example 3, over the 6 month period): remained unchanged | AUC0-∞ dependence on dose [4]: increased proportionally with dose | Increase in Cmax with dose [4]: less than dose-proportional | Hygroscopicity [5]: Non-hygroscopic | Hygroscopicity ([5]; DVS, 25° C.): essentially non-hygroscopic | Weight change ([5]; DVS, 25° C., 20%-90% relative humidity range): 1% | Weight loss (lattice water lost) ([5]; DVS, 25° C., equilibration at 0% RH): 2.6%

C[C@@H]1CN[C@@H](C2CC2)C(=O)N(C)[C@H](C)C(=O)N[C@H](Cc2ccc(F)cc2)C(=O)NCCCc2ccccc2O1 [compound 298]
Safety and pharmacokinetic properties [6]: appropriate safety and pharmacokinetic properties | Efficacy for the treatment of POI (POI): efficacy | Concurrent GH secretion (GH secretion): did not stimulate concurrent GH secretion | Efficacy for the treatment of diabetic gastroparesis (diabetic gastroparesis): efficacy
